{
  "source": "patent US20240294467A1",
  "about": "“USP9X Inhibitors” (ProDeg, LLC, priority 2021, published 2024)",
  "key": {"USP9X [1]": {"target": "T1, USP9X (Homo sapiens (Human), UniProt Q93008)", "T1 sequence (Q93008 whole entry)": "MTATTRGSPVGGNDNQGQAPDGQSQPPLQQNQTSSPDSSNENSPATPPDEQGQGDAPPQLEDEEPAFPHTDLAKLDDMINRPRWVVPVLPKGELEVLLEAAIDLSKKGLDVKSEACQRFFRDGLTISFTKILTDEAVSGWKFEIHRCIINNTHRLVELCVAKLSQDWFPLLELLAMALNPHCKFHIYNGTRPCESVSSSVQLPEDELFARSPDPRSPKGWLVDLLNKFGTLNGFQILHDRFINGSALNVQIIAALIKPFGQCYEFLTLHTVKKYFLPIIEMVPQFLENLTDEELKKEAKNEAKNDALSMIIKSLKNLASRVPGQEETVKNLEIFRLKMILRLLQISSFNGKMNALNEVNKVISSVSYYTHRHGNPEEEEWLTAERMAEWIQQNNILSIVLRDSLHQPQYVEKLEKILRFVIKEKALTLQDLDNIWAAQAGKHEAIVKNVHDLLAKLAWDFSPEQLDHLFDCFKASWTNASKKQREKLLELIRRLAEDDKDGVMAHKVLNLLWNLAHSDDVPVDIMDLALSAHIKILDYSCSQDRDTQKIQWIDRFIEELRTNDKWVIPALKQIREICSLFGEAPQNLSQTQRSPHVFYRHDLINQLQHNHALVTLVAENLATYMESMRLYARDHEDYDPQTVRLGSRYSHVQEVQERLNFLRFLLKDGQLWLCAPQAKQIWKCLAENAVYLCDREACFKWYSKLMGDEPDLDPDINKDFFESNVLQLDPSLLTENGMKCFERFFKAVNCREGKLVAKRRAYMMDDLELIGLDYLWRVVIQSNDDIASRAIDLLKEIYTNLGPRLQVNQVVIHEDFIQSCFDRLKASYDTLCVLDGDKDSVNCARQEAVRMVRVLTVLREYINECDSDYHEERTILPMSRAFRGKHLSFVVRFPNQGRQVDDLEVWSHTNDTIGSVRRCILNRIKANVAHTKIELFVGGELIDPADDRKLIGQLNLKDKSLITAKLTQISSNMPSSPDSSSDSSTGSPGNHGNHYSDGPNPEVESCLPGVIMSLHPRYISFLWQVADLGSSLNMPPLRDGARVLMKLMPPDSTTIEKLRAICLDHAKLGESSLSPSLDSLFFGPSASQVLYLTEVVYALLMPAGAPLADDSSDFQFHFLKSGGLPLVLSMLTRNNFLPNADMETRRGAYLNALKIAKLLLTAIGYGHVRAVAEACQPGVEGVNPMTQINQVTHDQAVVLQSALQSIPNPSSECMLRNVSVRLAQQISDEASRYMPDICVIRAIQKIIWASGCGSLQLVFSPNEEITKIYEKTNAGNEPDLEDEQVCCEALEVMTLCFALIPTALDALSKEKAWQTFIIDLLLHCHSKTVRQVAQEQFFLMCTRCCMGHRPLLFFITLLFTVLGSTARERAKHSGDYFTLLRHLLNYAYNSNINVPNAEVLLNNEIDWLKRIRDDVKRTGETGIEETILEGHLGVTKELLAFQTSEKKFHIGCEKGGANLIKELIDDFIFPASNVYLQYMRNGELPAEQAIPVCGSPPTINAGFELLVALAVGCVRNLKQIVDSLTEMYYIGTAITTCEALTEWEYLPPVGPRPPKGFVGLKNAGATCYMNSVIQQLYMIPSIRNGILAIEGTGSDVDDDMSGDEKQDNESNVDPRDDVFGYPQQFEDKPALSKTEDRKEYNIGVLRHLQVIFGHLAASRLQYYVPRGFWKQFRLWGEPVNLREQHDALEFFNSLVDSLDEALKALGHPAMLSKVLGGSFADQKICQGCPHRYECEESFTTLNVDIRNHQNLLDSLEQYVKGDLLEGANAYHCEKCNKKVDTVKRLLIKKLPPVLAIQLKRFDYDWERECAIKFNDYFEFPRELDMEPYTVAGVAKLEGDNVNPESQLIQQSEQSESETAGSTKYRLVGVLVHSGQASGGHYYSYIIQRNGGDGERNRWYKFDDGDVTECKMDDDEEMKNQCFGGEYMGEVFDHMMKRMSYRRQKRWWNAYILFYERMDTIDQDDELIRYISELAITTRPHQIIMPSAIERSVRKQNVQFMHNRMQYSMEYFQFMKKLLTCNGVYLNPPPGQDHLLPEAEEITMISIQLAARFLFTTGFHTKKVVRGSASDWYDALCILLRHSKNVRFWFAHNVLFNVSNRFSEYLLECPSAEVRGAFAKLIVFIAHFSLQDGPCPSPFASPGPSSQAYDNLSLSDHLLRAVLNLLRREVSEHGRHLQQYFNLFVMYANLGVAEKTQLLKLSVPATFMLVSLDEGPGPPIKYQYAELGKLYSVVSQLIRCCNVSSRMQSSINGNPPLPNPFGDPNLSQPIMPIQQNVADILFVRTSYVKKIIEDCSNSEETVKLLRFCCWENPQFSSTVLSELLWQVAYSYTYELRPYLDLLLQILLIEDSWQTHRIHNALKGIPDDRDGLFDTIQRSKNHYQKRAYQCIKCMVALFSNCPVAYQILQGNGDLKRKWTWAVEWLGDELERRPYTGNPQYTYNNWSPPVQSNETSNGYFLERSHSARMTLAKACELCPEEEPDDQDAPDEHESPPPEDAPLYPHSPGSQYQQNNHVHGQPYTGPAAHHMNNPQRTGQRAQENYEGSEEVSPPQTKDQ", "test": "Steady-state enzyme inhibition kinetics of USP9X", "assay_type": "biochemical", "from_the_text": "The data were fit to a general model for enzyme inhibition (FIG. 1E) so the values of the parameters determined from the assays specified the mode of inhibition. For example, in the case of α=1 and β=0, it corresponded to purely non-competitive inhibition. For α=infinity and p=1, it corresponded to purely competitive inhibition. The values of all the parameters, KS, KI, kcat, α, and β could be determined from the steady state measurements. The enzyme reactions were set up as described in the Inhibiting the catalytic activity of USP9X section. The concentration of the substrate ubqiutin-rhodamine110 was varied. The initial rates of the reactions were determined at several concentrations of the inhibitor Compound 2A. In order to determine the values of the parameters KS and kcat, the reaction rates in the absence of the inhibitor Compound 2A, the initial reaction rate data were fit to the standard Michaelis-Menten equation v=Vmax [S]/(Km+[S]). The values of α and β could then be determined by fitting the initial rate data of the enzyme reaction at various concentrations of Compound 2A to a modified version of the Michaelis-Menten equation, designating both Vmax and KS apparent to distinguish the apparent values of the parameters determined from these plots to the true values for these parameters determined from the steady state kinetics in the absence of Compound 2A. The values of α and β could be determined from the variation of the slopes and intercepts of the series of double reciprocal plots of 1/v versus 1/[S] for each concentration of Compound 2A. […] The two values determined for KI were from the two different plots.\nThe two values for KI were determined by two different methods for determining this parameter from the kinetic data: 1 represented a value determined from the slope of the 1/A intercept vs 1/[I] plot; 2 represented a value determined from the y intercept of the 1/A slope vs 1/[I] plot. […] Only the values of the parameters varied for the compounds."}, "USP9X [2]": {"target": "T1, USP9X", "test": "USP9X enzyme activity assay, ubiquitin-rhodamine110 substrate", "method": "The inhibition property of compound Compound 1A was evaluated in assays measuring the ability of USP9X to catalyze the hydrolysis of the amide bond between the C terminal carboxylate of ubiquitin and rhodamine110 of the fluorogenic substrate ubiquitin-rhodamine 110. To the wells of a 96 well reaction plate was added 12.5 μL USP9X solution (1.3 nM) in assay buffer (100 mM NaCl, 1 mM DTT, 0.1% bovine serum albumin, 0.05% Tween 20, 50 mM Tris, pH 7.5). 12.5 μL of Compound 1A in assay buffer (4×final concentration) was added to the wells containing the USP9X solution, and the solution was gently mixed by pipetting up and down several times. The plate was sealed and incubated at room temperature for 20 minutes.\nThen 25 μL of the 1 μM substrate (ubiquitin-rhodaminel10) solution was added in assay buffer. The final substrate concentration was 0.5 μM. […] The slope for the rate of change of the fluorescence was determined and plotted vs the concentration of Compound 1A.\nUSP9X enzyme assays were set up in a 96 well plate to assess the abilities of Compound 3A and Compound 4A to inhibit the activity of USP9X, respectively. Ubiquitin-rhodamine110 was used as the substrate and ubiquitin aldehyde was included in the assay as a positive control.\nPurified recombinant USPx9 (R&D Systems) in 50 mM Tris buffer pH 7.5, 1 mM DTT, 100 mM NaCl, 0.05% Tween 20 and 0/1% BSA is used at a concentration of 0.325 nM with 0.5 μM ubiquitin-rhodamine (R&D Systems)."}, "USP9X [3]": {"target": "T1, USP9X", "test": "Biacore T200 surface plasmon resonance binding to immobilized USP9X", "conditions": "25° C.", "from_the_text": "The terms “inhibit” as used herein with respect to the activity of the USP9X inhibitor, refer to the ability to substantially antagonize, prohibit, prevent, restrain, slow, disrupt, alter, eliminate, stop, or reverse the progression or severity of, for example, the catalytic activity of a DUB such as USP9X, the survival or proliferation of a cancer cell, or a disease or condition associated with USP9X. […] In some embodiments, the compounds as described can inhibit USP9X by binding to an active site of USP9X. […] The binding activity is determined with a standard binding assay, such as a Biacore surface plasmon resonance instrument. […] The binding affinity KD is determined using a Biacore T200 instrument (GE Healthcare, Biacore). Ubiquitin aldehyde can be used as a reference in analyzing the inhibition results determined via Biacore. […]\nUSP9X was immobilized on a chip for surface plasmon resonance measurements via Biacore T200. Solutions of compound Compound 2A at various concentrations were flowed over the immobilized USP9X and the change in refractive index was monitored. […] The values of the maximum response for each concentration of Compound 2A were plotted and were consistent with a binding of the compound to a single site on USP9X with a dissociation equilibrium constant of 1.9 μM in reasonable agreement with value determined from the kinetic association and dissociation rates."}, "carbonic anhydrase": {"test_system": "carbonic anhydrase", "test": "Biacore binding to immobilized carbonic anhydrase (non-specific binding control)"}},
  "note": "Where two headings read alike, the source gives them in different places.",
  "data": [
    {"smiles": "CC(C)(C)C[C@@H]1NC(=O)c2cccc(c2)CNC(=O)c2ccc(cc2)OCCNC(=O)CC(C)(C)CC(=O)N[C@H](C(=O)O)Cc2ccc(cc2)NC1=O", "note": "[Compound 2A]", "values": [
      {"measurement": "KS", "setting": "USP9X [1]", "value": 0.95, "unit": "µM"},
      {"measurement": "VMAX RFU/min", "setting": "USP9X [1]", "value": 310, "unit": "RFU/min"},
      {"measurement": "mode of inhibition", "setting": "USP9X [1]", "value": "hyperbolic mixed inhibition"},
      {"measurement": "α", "setting": "USP9X [1]", "value": 1.73},
      {"measurement": "β", "setting": "USP9X [1]", "value": 0.71},
      {"measurement": "Ki", "setting": "USP9X [1]; from the slope of the 1/Δ intercept vs 1/[I] plot, read-out: KI, nM (1)", "value": 120, "unit": "nM"},
      {"measurement": "Ki", "setting": "USP9X [1]; from the y intercept of the 1/Δ slope vs 1/[I] plot, read-out: KI, nM (2)", "value": 290, "unit": "nM"},
      {"measurement": "reduction of USP9X activity", "setting": "USP9X [2]; higher concentrations of compound (>10 μM)", "value": "approximately 60%"},
      {"measurement": "IC50", "setting": "USP9X [2]; read-out: IC50 for the inhibition of USP9X activity, ubiquitin-rhodamine110 substrate", "value": 390, "unit": "nM"},
      {"measurement": "IC50", "setting": "USP9X [2]; read-out: USP9X IC50 nM, Table 2", "value": 390, "unit": "nM"},
      {"measurement": "Kd", "setting": "USP9X [3]; read-out: dissociation equilibrium constant from maximum response vs concentration, single site", "value": 1900, "unit": "nM"},
      {"measurement": "Kd", "setting": "USP9X [3]; read-out: equilibrium dissociation constant KD from ratio of dissociation to association rate constant", "value": 480, "unit": "nM"},
      {"measurement": "binding to immobilized carbonic anhydrase", "setting": "carbonic anhydrase", "value": "did not bind"}
    ]}
  ]
}
